Reference: patent US9505754B2, “Compound useful for the treatment of degenerative and inflammatory diseases” (GALAPAGOS NV, priority 2009, dated 2016)

Experiments:
[1] = test system: collagen induced arthritis; test: Rat CIA (collagen induced arthritis) model; format: in vivo
Description: Completed Freund's adjuvant (CFA) and incomplete Freund's adjuvant (IFA) were purchased from Difco. Bovine collagen type […] (CII), lipopolysaccharide (LPS), and Enbrel were obtained from Chondrex (Isle d'Abeau, France); Sigma (P4252, L'Isle d'Abeau, France), Whyett (25 mg injectable syringe, France) Acros Organics (Palo Alto, Calif.), respectively. All other reagents used were of reagent grade and all solvents were of analytical grade.
Dark Agouti rats (male, 7-8 weeks old) are obtained from Harlan Laboratories (Maison-Alfort, France). DBA/1J mice (male, 7 weeks old) were obtained from Centre d'Elevage et de Reproduction JANVIER (CERJ) (Laval, France). Rats and mice were kept on a 12 hours light/dark cycle (0700-1900). The temperature was maintained at 22° C., and food and water were provided ad libitum.
One day before the experiment, CII solution (2 mg/mL) was prepared with 0.05 M acetic acid and stored at 4° C. Just before the immunization, equal volumes of adjuvant (IFA) and CII were mixed by a homogenizer in a pre-cooled glass bottle in an ice water bath. Extra adjuvant and prolonged homogenization might be required if an emulsion is not formed.
Rat: 0.2 mL of the emulsion is injected intradermally at the base of the tail of each rat on day 1, a second booster intradermal injection (CII solution at 2 mg/mL in CFA 0.1 mL saline) is performed on day 9. This immunization method is modified from published methods (Sims N A et al., (2004) Targeting osteoclasts with zoledronic acid prevents bone destruction in collagen-induced arthritis, Arthritis Rheum. 50 2338-2346; Jou et al., 2005).
The therapeutic effects of the test compounds were tested in the rat or mouse CIA model. Animals were randomly divided into equal groups and each group contained 10 animals. All rats are immunized on day 1 and boosted on day 9. All mice were immunized on day 1 and boosted on day 21. Therapeutic dosing lasted from day 16 to day 30. The negative control group was treated with vehicle (MC 0.5%) and the positive control group with Enbrel (10 mg/kg, 3× week., s.c.). A compound of interest was typically tested at 3 doses, e.g. 3, 10, 30 mg/kg, p.o.
Arthritis was scored according the method of Khachigian 2006, Lin et al 2007 and Nishida et al. 2004). […]
The area under the curve (AUC) from day 1 to day 14 was calculated for each individual rat. The AUC of each animal was divided by the average AUC obtained for the vehicle in the study from which the data on that animal was obtained and multiplied by 100 (i.e. the AUC was expressed as a percentage of the average vehicle AUC per study).
The clinical score difference for each animal was divided by the average clinical score difference obtained for the vehicle in the study from which the data on that animal was obtained and multiplied by 100 (i.e. the difference was expressed as a percentage of the average clinical score difference for the vehicle per study).
Post-mortem, a Larsen’ score was derived for both hind paws of all rats by at least 2 scientists. The average of these scores was calculated to obtain one Larsen’ score per rat. […]

[2] = Microsomal stability, human; format: in vitro ADME; conditions: human liver microsomes, 3 μM compound, 1 hour, 37° C.
Description: (§1) A 10 mM stock solution of compound in DMSO was diluted 1000 fold in a 182 mM phosphate buffer pH7.4 in a 96 deep well plate (Greiner, Cat no. 780285) and pre-incubated at 37° C.
(§2) 40 μL of deionised water was added to a well of a polypropylene Matrix 2D barcode labelled storage tube (Thermo Scientific) and pre-incubated at 37° C.
(§3) A Glucose-6-phophate-dehydrogenase (G6PDH) working stock solution was prepared in 182 mM phosphate buffer pH7.4 and placed on ice before use. A co-factor containing MgCl2, glucose-6-phosphate and NADP+ was prepared in deionised water and placed on ice before use. […]
(§4) These plates were sealed with sealing mats (MA96RD-04S) of www.kinesis.co.uk and samples were measured at room temperature on LCMS (ZQ 1525 from Waters) under optimized conditions using Quanoptimize to determine the appropriate mass of the parent molecule.
(§5) The samples were analyzed on LCMS with a flow rate of 1 mL/min. […]
(§6) Peak area from the parent compound at time 0 was considered to be 100% remaining. The percentage remaining after 1 hour incubation was calculated from time 0 and was calculated as the percentage remaining. […]
(§7) The data on microsomal stability are expressed as a percentage of the total amount of compound remaining after 60 minutes.

[3] = Microsomal stability, rat; format: in vitro ADME; conditions: rat liver microsomes, 3 μM compound, 1 hour, 37° C.
Description: as §1, §2, §3, §4, §5, §6, §7

Microsomal stability, Human (percentage of compound remaining after 60 minutes) [2]: 76-100% | Microsomal stability, Rat (percentage of compound remaining after 60 minutes) [3]: 76-100%
Structure (SMILES): CC1(C)CN(C(=O)c2ccc(-c3cccc4nc(NC(=O)C5CC5)nn34)cc2)C1 [Compound 1, Cyclopropanecarboxylic acid {5-[4-(3,3-dimethyl-azetidine-1-carbonyl)-phenyl]-[1,2,4]triazolo[1,5-a]pyridin-2-yl}-amide]
endpoint clinical score ([1]; rat CIA, from 1 mg/kg): significant improvements | paw swelling ([1]; rat CIA, from 1 mg/kg): significant improvements | AUC of the clinical score ([1]; rat CIA, from 10 mg/kg): significant improvements | Larsen' score ([1]; rat CIA, from 30 mg/kg): significant improvements | efficacy in rat CIA study readouts ([1]; rat, 30, 10, 3 and 1 mg/kg): efficacious in all readouts
